In US20250171495A1, “MUTLI-TARGETED SERINE PROTEASE INHIBITORS FOR TREATMENT OF CANCER AND VIRAL INFECTION” (Washington University, priority 2023, published 2025):
“And” between values parts separate entries of the source, which are not always exact repeats. Equal entries are not always repeated. Where two headings read alike, the source gives them in different places.

Columns and labels:
Type in all cases: biochemical
TMPRSS2 [1] = target: T1, TMPRSS2 (Homo sapiens, UniProt O15393); test: Fluorogenic kinetic enzyme inhibitor assay, TMPRSS2; set-up: purchased Cusabio Technology CSB-YP023924HU
Target sequence in this assay (O15393 106-492 limits assumed): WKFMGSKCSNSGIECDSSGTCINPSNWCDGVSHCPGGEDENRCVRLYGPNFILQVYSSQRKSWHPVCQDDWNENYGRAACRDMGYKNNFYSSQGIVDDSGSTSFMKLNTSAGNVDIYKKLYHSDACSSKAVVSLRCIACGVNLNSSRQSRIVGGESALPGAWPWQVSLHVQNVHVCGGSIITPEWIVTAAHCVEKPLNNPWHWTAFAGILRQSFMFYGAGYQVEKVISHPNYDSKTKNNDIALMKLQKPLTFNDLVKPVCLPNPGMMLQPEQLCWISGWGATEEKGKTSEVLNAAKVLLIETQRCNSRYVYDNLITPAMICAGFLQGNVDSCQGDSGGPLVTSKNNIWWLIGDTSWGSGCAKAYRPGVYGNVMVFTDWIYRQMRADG

matriptase = target: T2, matriptase (Homo sapiens, UniProt Q9Y5Y6); test: HyCoSuL P4-P2 substrate specificity screening, matriptase; details: for P2 Position Substrate Activity for matriptase (percent substrate cleavage/proteolysis): residue fixed at P2 position; for P3 Position Various Amino Acids Substrate Activity, matriptase (percent substrate cleavage/proteolysis): residue fixed at P3 position of substrate library; for P4 Position Various Amino Acids Substrate Activity, matriptase (percent substrate proteolysis/cleavage): residue fixed at P4 position of substrate library
T2 sequence (Q9Y5Y6 1-855): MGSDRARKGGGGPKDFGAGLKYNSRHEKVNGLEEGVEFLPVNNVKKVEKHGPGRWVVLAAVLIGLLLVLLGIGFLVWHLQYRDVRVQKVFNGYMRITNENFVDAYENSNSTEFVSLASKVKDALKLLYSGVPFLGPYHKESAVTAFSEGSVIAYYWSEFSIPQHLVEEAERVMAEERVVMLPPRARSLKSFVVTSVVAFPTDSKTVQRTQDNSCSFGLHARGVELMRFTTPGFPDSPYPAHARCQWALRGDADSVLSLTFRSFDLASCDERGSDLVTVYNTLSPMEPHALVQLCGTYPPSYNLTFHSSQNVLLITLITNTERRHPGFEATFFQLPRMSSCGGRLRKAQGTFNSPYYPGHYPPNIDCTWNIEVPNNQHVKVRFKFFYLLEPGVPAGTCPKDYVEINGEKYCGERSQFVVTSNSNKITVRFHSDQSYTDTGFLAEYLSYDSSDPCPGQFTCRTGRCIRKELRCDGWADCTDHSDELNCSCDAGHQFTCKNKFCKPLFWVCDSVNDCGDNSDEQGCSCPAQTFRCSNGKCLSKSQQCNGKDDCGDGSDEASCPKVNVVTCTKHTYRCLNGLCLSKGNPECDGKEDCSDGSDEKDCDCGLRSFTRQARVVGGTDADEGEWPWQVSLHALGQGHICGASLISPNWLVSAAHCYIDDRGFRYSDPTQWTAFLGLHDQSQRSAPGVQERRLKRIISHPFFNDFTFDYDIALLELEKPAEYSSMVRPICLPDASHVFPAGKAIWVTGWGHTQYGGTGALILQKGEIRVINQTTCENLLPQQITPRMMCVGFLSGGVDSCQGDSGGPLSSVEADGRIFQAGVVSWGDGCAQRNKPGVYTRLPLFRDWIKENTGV

HGFA = target: T3, HGFA (Homo sapiens, UniProt Q04756); test: HyCoSuL P4-P2 substrate specificity screening, HGFA; details: for P2 Position Substrate Activity for HGFA (percent substrate cleavage/proteolysis): residue fixed at P2 position; for P3 Position Various Amino Acids Substrate Activity, HGFA (percent substrate cleavage/proteolysis): residue fixed at P3 position of substrate library; for P4 Position Various Amino Acids Substrate Activity, HGFA (percent substrate proteolysis/cleavage): residue fixed at P4 position of substrate library
T3 sequence (Q04756 373-655): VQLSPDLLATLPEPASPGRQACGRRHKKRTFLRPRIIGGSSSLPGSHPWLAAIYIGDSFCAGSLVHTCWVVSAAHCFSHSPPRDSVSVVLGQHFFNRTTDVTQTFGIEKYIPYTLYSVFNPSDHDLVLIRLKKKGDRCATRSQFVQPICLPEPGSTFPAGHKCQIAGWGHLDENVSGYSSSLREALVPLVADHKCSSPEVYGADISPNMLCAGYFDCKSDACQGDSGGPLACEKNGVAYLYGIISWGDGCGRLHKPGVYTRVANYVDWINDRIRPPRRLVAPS

hepsin = target: T4, hepsin (Homo sapiens, UniProt P05981); test: HyCoSuL P4-P2 substrate specificity screening, hepsin; details: for P2 Position Substrate Activity for hepsin (percent substrate cleavage/proteolysis): residue fixed at P2 position; for P3 Position Various Amino Acids Substrate Activity, hepsin (percent substrate cleavage/proteolysis): residue fixed at P3 position of substrate library; for P4 Position Various Amino Acids Substrate Activity, hepsin (percent substrate proteolysis/cleavage): residue fixed at P4 position of substrate library
T4 construct: purchased R&D Systems 4776-SE-010
T4 sequence (P05981 163-417 limits assumed): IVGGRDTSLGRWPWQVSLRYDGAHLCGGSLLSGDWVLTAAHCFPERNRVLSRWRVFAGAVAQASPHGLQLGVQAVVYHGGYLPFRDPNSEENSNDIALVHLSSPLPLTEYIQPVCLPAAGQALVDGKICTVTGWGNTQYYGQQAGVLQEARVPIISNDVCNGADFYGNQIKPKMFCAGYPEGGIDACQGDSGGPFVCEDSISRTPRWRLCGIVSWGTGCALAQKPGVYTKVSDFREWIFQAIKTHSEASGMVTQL
T4 sequence (P05981 1-162 partner limits assumed): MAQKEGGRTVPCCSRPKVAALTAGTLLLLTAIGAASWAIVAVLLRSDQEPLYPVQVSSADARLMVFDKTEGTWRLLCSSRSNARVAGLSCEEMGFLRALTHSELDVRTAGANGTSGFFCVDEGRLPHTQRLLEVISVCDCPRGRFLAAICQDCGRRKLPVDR

TMPRSS2 [2] = target: T1, TMPRSS2; test: PS-SCL / HyCoSuL substrate specificity screening, TMPRSS2; details: for P2 Position Substrate Activity for TMPRSS2 (percent substrate cleavage/proteolysis): residue fixed at P2 position of substrate library
Target sequence in this assay (O15393 whole entry): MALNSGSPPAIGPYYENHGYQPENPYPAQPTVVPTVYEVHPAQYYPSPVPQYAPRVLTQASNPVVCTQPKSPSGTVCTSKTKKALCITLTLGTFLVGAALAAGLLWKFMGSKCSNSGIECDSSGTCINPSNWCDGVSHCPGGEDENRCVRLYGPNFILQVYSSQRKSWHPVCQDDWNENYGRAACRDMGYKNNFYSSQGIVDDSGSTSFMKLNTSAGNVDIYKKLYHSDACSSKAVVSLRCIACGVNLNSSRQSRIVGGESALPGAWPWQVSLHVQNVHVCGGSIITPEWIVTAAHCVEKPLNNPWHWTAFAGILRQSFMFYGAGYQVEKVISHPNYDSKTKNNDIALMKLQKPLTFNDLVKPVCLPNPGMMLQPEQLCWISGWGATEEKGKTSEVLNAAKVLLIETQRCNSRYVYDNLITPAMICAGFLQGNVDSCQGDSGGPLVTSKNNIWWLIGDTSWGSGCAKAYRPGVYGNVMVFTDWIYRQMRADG

[3] = P1-Arg HyCoSuL, 100 μM, best recognized amino acid set to 100%
[4] = best recognized amino acid set to 100%
[5] = residue fixed at P3 position of substrate library
[6] = residue fixed at P4 position of substrate library
[7] = residue fixed at P3 position, P1-Arg HyCoSuL, 100 μM, best recognized amino acid set to 100%
[8] = residue fixed at P4 position, P1-Arg HyCoSuL, 100 μM, best recognized amino acid set to 100%

Compound | IC50 (TMPRSS2 [1]; read-out: TMPRSS2 IC50) [nM] | P2 Position Substrate Activity for matriptase (percent substrate cleavage/proteolysis) (matriptase; [3]) [%] | P3 Position Various Amino Acids Substrate Activity, matriptase (percent substrate cleavage/proteolysis) (matriptase) [%] | P4 Position Various Amino Acids Substrate Activity, matriptase (percent substrate proteolysis/cleavage) (matriptase) [%] | P2 Position Substrate Activity for HGFA (percent substrate cleavage/proteolysis) (HGFA; [3]) [%] | P2 Position Substrate Activity for hepsin (percent substrate cleavage/proteolysis) (hepsin; [3]) [%] | P2 Position Substrate Activity for TMPRSS2 (percent substrate cleavage/proteolysis) (TMPRSS2 [2]; [4]) [%] | further results
C=CCOC(=O)CC[C@H](NC(=O)[C@@H]1Cc2ccccc2N1C(C)=O)C(=O)N[C@@H](Cc1ccc(F)cc1)C(=O)N[C@H](CCCNC(=N)N)C(=O)c1nc2ccccc2s1 [MF1067A, allyl (S)-4-[(S)-1-acetyl-2-indolinylcarbonylamino]-4-[N-(S)-2-(p-fluorophenyl)-1-[N-(R)-1-[(1,3-benzothiazol-2-yl)carbonyl]-4-guanidinobutylcarbamoyl]ethylcarbamoyl]butyrate] | – | – | – | – | – | – | – | IC50 (TMPRSS2 [1]): 0.431 nM
C=CCOC(=O)CC[C@H](NC(=O)[C@@H]1Cc2ccccc2N1C(C)=O)C(=O)N[C@@H](Cc1ccc(F)cc1)C(=O)N[C@@H](CCCNC(=N)N)C(=O)c1nc2ccccc2s1 [MF1067B, allyl (S)-4-[(S)-1-acetyl-2-indolinylcarbonylamino]-4-[N-(S)-2-(p-fluorophenyl)-1-[N-(S)-1-[(1,3-benzothiazol-2-yl)carbonyl]-4-guanidinobutylcarbamoyl]ethylcarbamoyl]butyrate] | – | – | – | – | – | – | – | IC50 (TMPRSS2 [1]): 0.2 nM
N=C(N)NCCC[C@H](NC(=O)[C@H](CCc1ccc(O)cc1)NC(=O)OCC1c2ccccc2-c2ccccc21)C(=O)c1nc2ccccc2s1 [MF1163, (S)-3-(p-hydroxyphenyl)-1-[N-(S)-1-[(1,3-benzothiazol-2-yl)carbonyl]-4-guanidinobutylcarbamoyl] propyl (9H-fluoren-9-yl)methanecarbamate] | 0.167 | – | – | – | – | – | – | –
CC(C)CC[C@H](NC(=O)OCC1c2ccccc2-c2ccccc21)C(=O)N[C@@H](CCCNC(=N)N)C(=O)c1nc2ccccc2s1 [MF1164, (S)-4-methyl-1-[N-(S)-1-[(1,3-benzothiazol-2-yl)carbonyl]-4-guanidinobutylcarbamoyl] pentyl (9H-fluoren-9-yl)methanecarbamate] | 458 | – | – | – | – | – | – | –
CC(=O)NCC(=O)N[C@@H](CCC(N)=O)C(=O)N[C@@H](Cc1ccccc1)C(=O)N[C@H](CCCNC(=N)N)C(=O)c1nc2ccccc2s1 [MM3122-1, N-[(S)-1-[N-(R)-1-[(1,3-benzothiazol-2-yl)carbonyl]-4-guanidinobutylcarbamoyl]-2-phenylethyl](S)-2-[(acetylaminomethyl)carbonylamino]glutaramide] | 6.46 | – | – | – | – | – | – | –
CC(=O)N[C@@H](CCCCNC(=N)N)C(=O)N[C@@H](Cc1cncn1COCc1ccccc1)C(=O)N[C@@H](CCC(C)C)C(=O)N[C@H](CCCNC(=N)N)C(=O)c1nc2ccccc2s1 [MM4031-1, N-[(R)-1-[(1,3-benzothiazol-2-yl)carbonyl]-4-guanidinobutyl](S)-2-[(S)-2-[(S)-1-acetylamino-5-guanidinopentylcarbonylamino]-3-{1-[(benzyloxy)methyl]-5-imidazolyl}propionylamino]-5-methylhexanamide] | 7.54 | – | – | – | – | – | – | –
CC(=O)N[C@@H](CCCCNC(=N)N)C(=O)N[C@@H](Cc1cncn1COCc1ccccc1)C(=O)N[C@@H](CCC(C)C)C(=O)N[C@@H](CCCNC(=N)N)C(=O)c1nc2ccccc2s1 [MM4031-2, N-[(S)-1-[(1,3-benzothiazol-2-yl)carbonyl]-4-guanidinobutyl](S)-2-[(S)-2-[(S)-1-acetylamino-5-guanidinopentylcarbonylamino]-3-{1-[(benzyloxy)methyl]-5-imidazolyl}propionylamino]-5-methylhexanamide] | 9.39 | – | – | – | – | – | – | –
CCC(C)[C@H](NC(C)=O)C(=O)N[C@@H](CCC(=O)O)C(=O)N[C@@H](Cc1ccccc1)C(=O)N[C@H](CCCNC(=N)N)C(=O)c1nc2ccccc2s1 (stereo partly drawn) [MM4037-1, (S)-4-[(2S)-2-acetylamino-3-methylvalerylamino]-4-[N-(S)-1-[N-(R)-1-[(1,3-benzothiazol-2-yl)carbonyl]-4-guanidinobutylcarbamoyl]-2-phenylethylcarbamoyl]butyric acid] | 0.385 | – | – | – | – | – | – | –
L-Thr | – | 15 | 31 | 14 | 8.87 | 70.75 | 22.02 | P3 Position Various Amino Acids Substrate Activity, HGFA (percent substrate cleavage/proteolysis) (HGFA): 14.51%; P4 Position Various Amino Acids Substrate Activity, HGFA (percent substrate proteolysis/cleavage) (HGFA): 7.67%; P3 Position Various Amino Acids Substrate Activity, hepsin (percent substrate cleavage/proteolysis) (hepsin): 35.34%; P4 Position Various Amino Acids Substrate Activity, hepsin (percent substrate proteolysis/cleavage) (hepsin): 29.29%; P3 Position Various Amino Acids Substrate Activity, TMPRSS2 (percent substrate cleavage/proteolysis) (TMPRSS2 [2]; [5]): 39.80%; P4 Position Various Amino Acids Substrate Activity, TMPRSS2 (percent substrate proteolysis/cleavage) (TMPRSS2 [2]; [6]): 21.84%
L-Trp | – | 32 | 11 | 9 | 4.04 | 6.00 | 33.05 | P3 Position Various Amino Acids Substrate Activity, HGFA (percent substrate cleavage/proteolysis) (HGFA): 17.50%; P4 Position Various Amino Acids Substrate Activity, HGFA (percent substrate proteolysis/cleavage) (HGFA): 8.78%; P3 Position Various Amino Acids Substrate Activity, hepsin (percent substrate cleavage/proteolysis) (hepsin): 0.00%; P4 Position Various Amino Acids Substrate Activity, hepsin (percent substrate proteolysis/cleavage) (hepsin): 6.82%; P3 Position Various Amino Acids Substrate Activity, TMPRSS2 (percent substrate cleavage/proteolysis) (TMPRSS2 [2]; [5]): 22.96%; P4 Position Various Amino Acids Substrate Activity, TMPRSS2 (percent substrate proteolysis/cleavage) (TMPRSS2 [2]; [6]): 24.62%
L-Tyr | – | 12 | 17 | 14 | 3.17 | 22.79 | 31.93 | P3 Position Various Amino Acids Substrate Activity, HGFA (percent substrate cleavage/proteolysis) (HGFA): 11.59%; P4 Position Various Amino Acids Substrate Activity, HGFA (percent substrate proteolysis/cleavage) (HGFA): 16.47%; P3 Position Various Amino Acids Substrate Activity, hepsin (percent substrate cleavage/proteolysis) (hepsin): 7.75%; P4 Position Various Amino Acids Substrate Activity, hepsin (percent substrate proteolysis/cleavage) (hepsin): 22.39%; P3 Position Various Amino Acids Substrate Activity, TMPRSS2 (percent substrate cleavage/proteolysis) (TMPRSS2 [2]; [5]): 16.18%; P4 Position Various Amino Acids Substrate Activity, TMPRSS2 (percent substrate proteolysis/cleavage) (TMPRSS2 [2]; [6]): 31.87%
L-hArg | – | 16 | 44 | 86 | 5.83 | 57.96 | 13.07 | P3 Position Substrate Activity for matriptase (percent substrate cleavage/proteolysis) (matriptase; [7]): 44.42%; P4 Position Substrate Activity for matriptase (percent substrate cleavage/proteolysis) (matriptase; [8]): 76.43% and 86.17%; P3 Position Substrate Activity for HGFA (percent substrate cleavage/proteolysis) (HGFA; [7]): 100.00%; P4 Position Substrate Activity for HGFA (percent substrate cleavage/proteolysis) (HGFA; [8]): 22.07%; P3 Position Substrate Activity for hepsin (percent substrate cleavage/proteolysis) (hepsin; [7]): 47.00%; P4 Position Substrate Activity for hepsin (percent substrate cleavage/proteolysis) (hepsin; [8]): 56.24%; P3 Position Substrate Activity for TMPRSS2 (percent substrate cleavage/proteolysis) (TMPRSS2 [2]; residue fixed at P3 position of substrate library, best recognized amino acid set to 100%): 18.34%; P4 Position Substrate Activity for TMPRSS2 (percent substrate cleavage/proteolysis) (TMPRSS2 [2]; residue fixed at P4 position of substrate library, best recognized amino acid set to 100%): 44.91%
